Source: US8658604B2, “Template-fixed beta-hairpin peptidomimetics with protease inhibitory activity” (Polyphor Ltd, priority 2005, dated 2014)
Read-outs that look alike come from different tables or passages of the source. Where a SMILES comes first, the peptide text is derived from it.

Columns and labels:
[1] = tested on: human red blood cells (hRBC); experiment: Hemolysis
[2] = molecular target: Trypsin, from human pancreas (Homo sapiens, UniProt P07477); experiment: Enzymatic assay, trypsin; settings: at 100 μM
[3] = molecular target: T1, Elastase from human neutrophils (Homo sapiens, UniProt P08246); experiment: Enzymatic assay, elastase
T1 sequence (P08246 30-267): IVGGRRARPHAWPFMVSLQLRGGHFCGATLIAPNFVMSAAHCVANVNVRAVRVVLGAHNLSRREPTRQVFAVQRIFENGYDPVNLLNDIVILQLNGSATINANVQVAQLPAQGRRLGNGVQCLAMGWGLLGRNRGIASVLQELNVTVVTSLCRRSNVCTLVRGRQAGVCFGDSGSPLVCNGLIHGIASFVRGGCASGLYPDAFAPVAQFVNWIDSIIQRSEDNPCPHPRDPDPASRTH

[4] = tested on: Tryptase, from human lung; experiment: Enzymatic assay, tryptase; settings: at 100 μM
[5] = molecular target: Thrombin, from Human Plasma (Homo sapiens, UniProt P00734); experiment: Enzymatic assay, thrombin
[6] = molecular target: Urokinase from human urine (Homo sapiens, UniProt P00749); experiment: Enzymatic assay, urokinase
[7] = molecular target: T2, CathepsinG, from human neutrophils (Homo sapiens, UniProt P08311); experiment: Enzymatic assay, cathepsin G
T2 sequence (P08311 21-244): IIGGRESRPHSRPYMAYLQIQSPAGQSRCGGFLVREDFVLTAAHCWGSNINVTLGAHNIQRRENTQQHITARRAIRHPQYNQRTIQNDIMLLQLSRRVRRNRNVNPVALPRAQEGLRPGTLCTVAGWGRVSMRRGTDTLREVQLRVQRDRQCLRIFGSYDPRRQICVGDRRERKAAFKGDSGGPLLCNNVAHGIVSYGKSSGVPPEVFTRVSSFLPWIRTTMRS

[8] = molecular target: Coagulation Factor Xa, from uman plasma (Homo sapiens, UniProt P00742); experiment: Enzymatic assay, coagulation factor Xa
Chymase, from human skin = molecular target: T3, Chymase, from human skin (Homo sapiens, UniProt P23946); experiment: Enzymatic assay, chymase
T3 sequence (P23946 22-247): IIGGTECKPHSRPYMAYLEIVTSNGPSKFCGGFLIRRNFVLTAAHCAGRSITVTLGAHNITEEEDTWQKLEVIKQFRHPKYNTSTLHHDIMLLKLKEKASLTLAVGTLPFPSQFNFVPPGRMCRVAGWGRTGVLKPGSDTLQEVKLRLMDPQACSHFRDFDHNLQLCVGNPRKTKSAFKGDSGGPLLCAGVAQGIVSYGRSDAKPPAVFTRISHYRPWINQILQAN

[9] = molecular target: Chymotrypsin, from human pancreas (Homo sapiens, UniProt P17538); experiment: Enzymatic assay, chymotrypsin; settings: at 100 μM
HELA cells (Acc57) = experiment: Cytotoxicity assay (MTT reduction), HELA cells; assay type: cell-based; settings: Hela cells
Method in brief: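 HeLa cells were grown for 24 h, then exposed to peptides at 12.5, 25 and 50 μM in triplicate for 48 h at 37 °C. MTT reduction was read at 595 nm and growth % calculated relative to time-zero wells. LC50 interpolated by linear trend at −50% growth, GI50 at 50%.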

Sequence of Chymotrypsin, from human pancreas (P17538 19-263): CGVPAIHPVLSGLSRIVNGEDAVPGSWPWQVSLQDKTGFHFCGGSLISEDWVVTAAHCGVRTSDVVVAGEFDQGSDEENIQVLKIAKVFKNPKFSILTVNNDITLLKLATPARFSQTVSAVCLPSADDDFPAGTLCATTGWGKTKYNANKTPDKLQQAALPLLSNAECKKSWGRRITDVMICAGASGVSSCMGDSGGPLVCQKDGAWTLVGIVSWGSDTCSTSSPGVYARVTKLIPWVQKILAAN
Sequence of Coagulation Factor Xa, from uman plasma (P00742 235-488 limits assumed): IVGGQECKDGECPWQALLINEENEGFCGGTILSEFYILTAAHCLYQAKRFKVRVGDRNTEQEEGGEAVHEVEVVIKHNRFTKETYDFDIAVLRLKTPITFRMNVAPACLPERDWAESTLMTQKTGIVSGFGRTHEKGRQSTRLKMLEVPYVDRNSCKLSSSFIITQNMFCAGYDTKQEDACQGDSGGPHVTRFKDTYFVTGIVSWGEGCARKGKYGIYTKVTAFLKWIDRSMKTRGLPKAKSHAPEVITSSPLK
Sequence of Coagulation Factor Xa, from uman plasma (P00742 41-179 limits assumed): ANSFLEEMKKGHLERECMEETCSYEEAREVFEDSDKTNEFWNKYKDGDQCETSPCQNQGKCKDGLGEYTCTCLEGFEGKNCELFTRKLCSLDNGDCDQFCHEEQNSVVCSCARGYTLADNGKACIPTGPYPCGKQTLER

SMILES	Hemolysis at 100 μM % [1]	Trypsin at 100 μM % [2]	IC50 ([3]; Elastase IC50)	Tryptase at 100 μM % [4]	Thrombin at 100 μM % [5]	Urokinase at 100 μM % [6]	IC50 ([7]; Cathepsin G IC50)	FXa at 100 μM % [8]	Chymase at 100 μM % (Chymase, from human skin)	Chymotrypsin at 100 μM % [9]	Cytotoxicity LC50/GI50 Hela cells (HELA cells (Acc57))	IC50 ([3]; read-out: Elastase IC50)	IC50 ([7]; read-out: Cathepsin G IC50)
CC[C@H](C)[C@@H]1NC(=O)[C@@H]2CCCN2C(=O)[C@@H]2CCCN2C(=O)[C@H](CC(=O)O)NC(=O)[C@H](CO)NC(=O)[C@H](CCCCN)NC(=O)[C@H]([C@@H](C)O)NC(=O)[C@@H]2CSSC[C@H](NC1=O)C(=O)N[C@@H](Cc1ccc(O)cc1)C(=O)N1CCC[C@@H]1C(=O)N1CCC[C@H]1C(=O)N[C@@H](Cc1ccccc1)C(=O)N2 [Ex. 5] (HELM PEPTIDE1{F.C.T.K.S.D.P.P.I.C.Y.[dP].P}$PEPTIDE1,PEPTIDE1,2:R3-10:R3|PEPTIDE1,PEPTIDE1,1:R1-13:R2$$$V2.0)	0%	92%	> 100 µM	74%	0.5%	5.7%	0.056 µM	0.2%	0%	3%	–	–	–
CCCC[C@@H]1NC(=O)[C@@H]2CCCN2C(=O)[C@@H]2CCCN2C(=O)[C@H](CC(=O)O)NC(=O)[C@H](CO)NC(=O)[C@H](CCCCN)NC(=O)[C@H]([C@@H](C)O)NC(=O)[C@@H]2CSSC[C@H](NC1=O)C(=O)N[C@@H](CO)C(=O)N1CCC[C@@H]1C(=O)N1CCC[C@H]1C(=O)N[C@@H](Cc1ccccc1)C(=O)N2 [Ex. 15] (HELM PEPTIDE1{F.C.T.K.S.D.P.P.[Nle].C.S.[dP].P}$PEPTIDE1,PEPTIDE1,2:R3-10:R3|PEPTIDE1,PEPTIDE1,1:R1-13:R2$$$V2.0)	0%	95.0%	> 100 µM	–	–	–	0.056 µM	–	12.7%	54.2%	100 µM	–	–
CCCC[C@@H]1NC(=O)[C@@H]2CCCN2C(=O)[C@@H]2CCCN2C(=O)[C@H](CC(=O)O)NC(=O)[C@H](CO)NC(=O)[C@H](CCCCN)NC(=O)[C@H]([C@@H](C)O)NC(=O)[C@@H]2CSSC[C@H](NC1=O)C(=O)N[C@@H](CO)C(=O)N1CCC[C@@H]1C(=O)N1CCC[C@H]1C(=O)N[C@@H](Cc1ccccc1)C(=O)N2 [Ex. 53] (HELM PEPTIDE1{F.C.T.K.S.D.P.P.[Nle].C.S.[dP].P}$PEPTIDE1,PEPTIDE1,2:R3-10:R3|PEPTIDE1,PEPTIDE1,1:R1-13:R2$$$V2.0)	0%	95%	–	–	–	–	–	–	12.7%	54%	63 µM	> 100 µM	0.056 µM
CC[C@H](C)[C@@H]1NC(=O)[C@@H]2CCCN2C(=O)[C@H]2CCCN2C(=O)[C@H](CCCNC(=N)N)NC(=O)[C@@H]2CSSC[C@H](NC1=O)C(=O)N[C@@H]([C@@H](C)O)C(=O)N[C@@H](CCCCN)C(=O)N[C@@H](CO)C(=O)N[C@@H](CC(=O)O)C(=O)N1CCC[C@H]1C(=O)N1CCC[C@H]1C(=O)N[C@@H](CCC(N)=O)C(=O)N2 [Ex. 55] (HELM PEPTIDE1{I.C.T.K.S.D.P.P.Q.C.R.[dP].P}$PEPTIDE1,PEPTIDE1,2:R3-10:R3|PEPTIDE1,PEPTIDE1,1:R1-13:R2$$$V2.0)	0.1%	90%	–	90.4%	–	–	–	–	27.6%	16%	94 µM	> 100 µM	0.055 µM
CCCC[C@@H]1NC(=O)[C@@H]2CCCN2C(=O)[C@@H]2CCCN2C(=O)[C@H](CC(=O)O)NC(=O)[C@H](CO)NC(=O)[C@H](CCCCN)NC(=O)[C@H]([C@@H](C)O)NC(=O)[C@@H]2CSSC[C@H](NC1=O)C(=O)N[C@@H](CCCNC(=N)N)C(=O)N1CCC[C@@H]1C(=O)N1CCC[C@H]1C(=O)N[C@@H]([C@@H](C)CC)C(=O)N2 [Ex. 57] (HELM PEPTIDE1{I.C.T.K.S.D.P.P.[Nle].C.R.[dP].P}$PEPTIDE1,PEPTIDE1,2:R3-10:R3|PEPTIDE1,PEPTIDE1,1:R1-13:R2$$$V2.0)	0%	94%	–	82.2%	11%	4%	–	32%	26.9%	0%	–	> 100 µM	0.041 µM
